Test results published in patent US20220257752A1, “NEW USE OF CYCLIC DINUCLEOTIDES” (priority 2019, published 2022).

Assays:
[1] = system: H1N1 PR8 influenza A/WSN/33 (WSN)-OVA(I) strain; type: in vivo, mice
human cord blood = assay: In vitro assay using human cord blood: cytokines in supernatant (multiplex array, IL-1β ELISA); type: cell-based
From the text: (§1) Adult peripheral blood for controls was collected from healthy volunteers. Cord blood was obtained by needle puncture of the umbilical cord vein right after delivery of healthy newborn donors at the Women's Clinic (Braunschweig Central Hospital). Signed informed consent from parents was obtained, ensuring that no ulterior modification of the genetic material contained or therapeutic use was involved in our study. Citrate anti-coagulated cord blood bags (Macopharma, France) were stored at room temperature before the in vitro assays.
(§2) Adult or cord blood was mixed 1:1 with 37° C. warm RPMI 1640 medium (Gibco) and incubated with adjuvants and controls according to previously described method (Dowling, D. J., et. al., 2013, PLoS One 8 (3):e58164.). Briefly, 20 μl of the adjuvants 10× were added to 180 μl of diluted blood in quadruplicates (in a 96 U shape well plate), and incubated at 37° C., 5% CO2 for 6 h. Supernatant fluids were assayed by flow cytometry in multiplex arrays (Biolegend) or in an ELISA reader for IL-1β (eBioscience).
(§3) One of the well-established methods to assess adjuvant immunogenicity in human neonates is the use of cord blood as a surrogate (Dowling, D. J., et. al., 2013, PLoS One 8 (3):e58164. doi:). Therefore, to assess the secretory cytokine profile elicited by CDA in neonates, we incubated cord and adult blood in the presence of adjuvants and controls for 6 h. A bead-based multiplexed immunoassay array was employed in order to detect cytokines in the supernatant. […] Remarkably, CDA increased the secretion of Th1 cytokines, which are important to counteract the Th2 bias present at birth (Debock, I., et. al., 2013, J Immunol 191 (3):1231-9. doi: 10.4049/jimmunol.1203288).

OVA-specific IgG = type: in vivo, mice; conditions: versus OVA alone, PBS and R848
[2] = system: human adult peripheral blood; assay: In vitro assay using human adult blood: cytokines in supernatant (multiplex array, IL-1β ELISA); type: cell-based
From the text: as §1, §2, §3

[3] = system: H1N1 influenza A/WSN/33 (WSN)-OVA(I) strain; type: in vivo, mice; conditions: mouse, in vivo

| Molecule | protection conferred ([1]; mouse, in vivo) | protective CTL response against influenza virus expressing a CD8 restricted epitope ([1]; mouse, in vivo) | differences in protection during the 48 h of maximal weight loss ([1]; versus the other adjuvants and controls, unpaired t test p≤0.05) | Th17 cytokines (human cord blood; after treatment, blood type not given) | IL-9 (human cord blood; cord blood samples) | IL-6, IL-21 and IL-10 (Tfh profile cytokines) concentrations (human cord blood; cord blood, 6 h incubation) | TNF-α and IFN-γ (Th1 cytokines) concentrations in supernatant (human cord blood; cord blood, 6 h incubation, compared to R848 or medium) | stimulation of cytokines produced by Th2 and Th17 cells (human cord blood; cord blood, compared to R848 treatment and control cells) | IL-1β (pro-inflammatory cytokine) by ELISA (human cord blood; cord blood, with respect to R848) | OVA-specific IgG titers in sera (OVA-specific IgG) | IL-6, IL-21 and IL-10 (Tfh profile cytokines) concentrations ([2]; 6 h incubation) | TNF-α and IFN-γ (Th1 cytokines) concentrations in supernatant ([2]; 6 h incubation, compared to R848 or medium) | stimulation of cytokines produced by Th2 and Th17 cells ([2]; compared to R848 treatment and control cells) | IL-9 ([2]; over the other treatments) | IL-1β (pro-inflammatory cytokine) by ELISA ([2]; with respect to R848) | body weight over 14 days after challenge [3] | deaths after challenge ([1]; mouse, in vivo) |
| --- | --- | --- | --- | --- | --- | --- | --- | --- | --- | --- | --- | --- | --- | --- | --- | --- | --- |
| Nc1ncnc2c1ncn2[C@@H]1O[C@@H]2COP(=O)(O)O[C@H]3[C@@H](O)[C@H](n4cnc5c(N)ncnc54)O[C@@H]3COP(=O)(O)O[C@H]2[C@H]1O [CDA, cyclic bis(3′-5′)diadenylic acid] | significantly higher | able to promote a protective CTL response | significant | particularly decreased | slightly decreased | higher concentrations | higher concentrations | more modest | slightly decreased | higher titers | Slightly similar results | differences were not observed | more modest | difference was accentuated | slightly decreased |  |  |
| CCOCc1nc2c(N)nc3ccccc3c2n1CC(C)(C)O [R848, reference compound] |  |  |  |  |  |  |  |  |  |  |  |  |  |  |  | lost weight |  |
| OVA: ovalbumin antigen (EndoGrade, Hyglos) given without adjuvant (protein, UniProt P01012 2-386, looked up) Ovalbumin: GSIGAASMEFCFDVFKELKVHHANENIFYCPIAIMSALAMVYLGAKDSTRTQINKVVRFDKLPGFGDSIEAQCGTSVNVHSSLRDILNQITKPNDVYSFSLASRLYAEERYPILPEYLQCVKELYRGGLEPINFQTAADQARELINSWVESQTNGIIRNVLQPSSVDSQTAMVLVNAIVFKGLWEKAFKDEDTQAMPFRVTEQESKPVQMMYQIGLFRVASMASEKMKILELPFASGTMSMLVLLPDEVSGLEQLESIINFEKLTEWTSSNVMEERKIKVYLPRMKMEEKYNLTSVLMAMGITDVFSSSANLSGISSAESLKISQAVHAAHAEINEAGREVVGSAEAGVDAASVSEEFRADHPFLFCIKHIATNAVLFFGRCVSP |  |  |  |  |  |  |  |  |  |  |  |  |  |  |  | lost weight | no deaths |
